This is an account of results in ChEMBL document CHEMBL5104090, “Recent advances in the medicinal chemistry of carbonic anhydrase inhibitors” (Eur J Med Chem, 2021).

One data set deals with Ca9-22. Put plainly: cells. The format is functional. The note with it: Homo sapiens, time 48 hrs.
In a further data set the test system is HSC-2. Briefly: cells. The format is functional. The note with it: Homo sapiens, time 48 hrs.
Data set [1] concerns the target T1, Carbonic anhydrase 2 (Homo sapiens, UniProt P00918).
For data set [2], the target named is T2, Carbonic anhydrase 1 (Homo sapiens, UniProt P00915).
A further data set has as its target Carbonic anhydrase 9 (Homo sapiens, UniProt Q16790).
Another data set concerns the target Carbonic anhydrase 12 (Homo sapiens, UniProt O43570).
A short description of data set [3]: in vitro. The note with it: human.
Description: Selectivity index, ratio of CC50 for cytotoxicity against HGF cells to CC50 for cytotoxicity against human Ca9-22 cells by MTT method
A short description of data set [4]: in vitro. The note with it: human. This is another data set of the same source.
Description: Selectivity index, ratio of CC50 for cytotoxicity against HPLF cells to CC50 for cytotoxicity against human Ca9-22 cells by MTT method
A short description of data set [5]: in vitro. The note with it: human. The source holds these as a separate data set.
Description: Selectivity index, ratio of CC50 for cytotoxicity against HGF cells to CC50 for cytotoxicity against human HSC-2 cells by MTT method
Data set [6] is described as follows: in vitro. As to conditions: human. This is another data set of the same source.
Description: Selectivity index, ratio of CC50 for cytotoxicity against HPLF cells to CC50 for cytotoxicity against human HSC-2 cells by MTT method
In another data set the target is Carbonic anhydrase 4 (Homo sapiens, UniProt P22748).
Data set [7] concerns the target T2, Carbonic anhydrase 1. The source holds these as a separate data set.
Data set [8] concerns the target T1, Carbonic anhydrase 2. This is another data set of the same source.
The target in a further data set is Acetylcholinesterase (Homo sapiens, UniProt P22303).
In data set [9] the target is Carbonic anhydrase 5A, mitochondrial (Homo sapiens, UniProt P35218).

Each structure is given as a SMILES string.

T2 sequence (P00915 whole entry): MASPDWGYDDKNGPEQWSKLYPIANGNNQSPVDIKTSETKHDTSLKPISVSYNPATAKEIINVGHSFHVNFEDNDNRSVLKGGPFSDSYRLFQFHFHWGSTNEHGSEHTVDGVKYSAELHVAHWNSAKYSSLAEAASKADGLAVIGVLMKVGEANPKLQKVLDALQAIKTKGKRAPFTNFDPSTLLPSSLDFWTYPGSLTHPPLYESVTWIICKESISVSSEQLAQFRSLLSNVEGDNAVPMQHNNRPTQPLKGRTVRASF
Chain of Carbonic anhydrase 4 (P22748 whole entry): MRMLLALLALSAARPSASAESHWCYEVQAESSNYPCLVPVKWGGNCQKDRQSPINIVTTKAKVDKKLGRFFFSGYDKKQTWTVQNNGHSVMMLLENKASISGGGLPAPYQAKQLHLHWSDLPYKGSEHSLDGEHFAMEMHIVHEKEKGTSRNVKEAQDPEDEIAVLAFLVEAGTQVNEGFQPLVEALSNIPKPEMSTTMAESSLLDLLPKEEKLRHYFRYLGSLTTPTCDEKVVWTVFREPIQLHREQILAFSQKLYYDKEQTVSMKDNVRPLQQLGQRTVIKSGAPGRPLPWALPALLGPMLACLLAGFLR
Chain of Carbonic anhydrase 5A, mitochondrial (P35218 whole entry): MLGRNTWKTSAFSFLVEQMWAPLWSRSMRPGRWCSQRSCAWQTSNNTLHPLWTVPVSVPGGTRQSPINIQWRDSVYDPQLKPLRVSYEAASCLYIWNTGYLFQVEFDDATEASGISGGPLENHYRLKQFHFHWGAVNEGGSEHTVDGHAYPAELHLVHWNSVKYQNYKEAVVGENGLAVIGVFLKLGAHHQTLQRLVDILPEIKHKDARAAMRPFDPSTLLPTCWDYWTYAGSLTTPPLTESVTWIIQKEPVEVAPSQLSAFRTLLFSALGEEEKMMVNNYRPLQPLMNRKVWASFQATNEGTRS
Chain of Carbonic anhydrase 12 (O43570 whole entry): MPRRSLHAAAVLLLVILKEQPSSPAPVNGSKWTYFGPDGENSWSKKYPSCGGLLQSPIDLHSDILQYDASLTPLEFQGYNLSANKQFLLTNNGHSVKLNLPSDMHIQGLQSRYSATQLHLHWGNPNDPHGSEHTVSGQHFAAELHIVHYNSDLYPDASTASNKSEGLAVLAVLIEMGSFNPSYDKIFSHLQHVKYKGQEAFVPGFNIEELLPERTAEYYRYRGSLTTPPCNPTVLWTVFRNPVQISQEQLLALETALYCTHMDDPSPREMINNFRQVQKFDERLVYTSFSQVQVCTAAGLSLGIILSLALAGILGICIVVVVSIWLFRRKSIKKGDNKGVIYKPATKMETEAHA
Chain of Acetylcholinesterase (P22303 whole entry): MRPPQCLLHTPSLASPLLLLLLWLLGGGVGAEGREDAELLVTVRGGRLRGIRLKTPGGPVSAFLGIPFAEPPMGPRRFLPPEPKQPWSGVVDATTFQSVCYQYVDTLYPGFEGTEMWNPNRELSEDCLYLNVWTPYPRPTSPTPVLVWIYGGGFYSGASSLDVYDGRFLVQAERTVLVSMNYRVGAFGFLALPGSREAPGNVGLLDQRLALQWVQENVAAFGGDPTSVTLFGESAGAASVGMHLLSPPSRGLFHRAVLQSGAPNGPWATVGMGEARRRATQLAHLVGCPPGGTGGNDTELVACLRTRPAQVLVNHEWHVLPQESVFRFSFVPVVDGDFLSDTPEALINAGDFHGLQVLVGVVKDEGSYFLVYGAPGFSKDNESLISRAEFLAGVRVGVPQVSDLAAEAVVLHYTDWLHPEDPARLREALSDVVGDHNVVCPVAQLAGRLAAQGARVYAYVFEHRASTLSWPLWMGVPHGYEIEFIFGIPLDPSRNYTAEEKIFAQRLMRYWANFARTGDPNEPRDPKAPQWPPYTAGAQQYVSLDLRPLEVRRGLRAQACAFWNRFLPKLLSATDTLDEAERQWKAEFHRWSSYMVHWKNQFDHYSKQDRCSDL
Description for Ca9-22: Cytotoxicity against human Ca9-22 cells assessed as cell growth inhibition measured after 48 hrs by MTT assay
Description for HSC-2: Cytotoxicity against human HSC-2 cells assessed as cell growth inhibition measured after 48 hrs by MTT assay

The CC50 is the concentration giving 50% cytotoxicity. A high value points to lower toxicity to the cells. One may read the Ki as a measure of affinity in units of concentration, obtained from inhibition or displacement. Higher therefore signals lower affinity. As for `COc1cc(C2CC(c3ccc(F)cc3)=NN2c2ccc(S(N)(=O)=O)cc2)cc(OC)c1OC` (stereo not given), the cytotoxic concentration (CC50) came out at 6300 nM with Ca9-22 and 7300 nM in the data set on HSC-2. For the same compound, the inhibitory constant (Ki) at Carbonic anhydrase 2 [1] is 0.089 nM; on Carbonic anhydrase 1 [2], more than 230 nM; at Carbonic anhydrase 9, more than 44 nM; on Carbonic anhydrase 12, more than 9 nM. Also, the selectivity ratio in “in vitro [3]”, in “in vitro [4]”, in “in vitro [5]” and in the data set “in vitro [6]” was 1.1 each time.
On to `COc1cc(S(N)(=O)=O)ccc1-c1nc(-c2cccc(F)c2)no1`, for which the Ki at Carbonic anhydrase 4 is 8.9 nM.
Consider `NS(=O)(=O)c1ccc(N2N=C(c3cccs3)CC2c2ccc(Br)cc2)cc1` (stereo not given), for which the Ki stood at 25.6 nM on Carbonic anhydrase 1 [7], 37.3 nM at Carbonic anhydrase 2 [8] and 80.6 nM on Acetylcholinesterase.
In turn, `CC(C)[C@@H](NC(=O)OCc1ccccc1)C(=O)NCCc1ccc(S(N)(=O)=O)cc1` registered a Ki in [9] of 58.7 nM.
